Assay results as given in patent US11065220B2, “Anti-pathogenic therapeutic compositions” (Wintermute Biomedical, Inc., priority 2017, dated 2021).

How the values were obtained:
MRSA [1] = experiment: Iodonitrotetrazolium chloride assay of MRSA growth, various anthraquinones with L-Arg and UCA; assay type: cell-based, Staphylococcus aureus; conditions: FIG. 20
Experimental: Although the WT13-13 example compound described herein uses cassic acid (rhein) as the anthraquinones, other anthraquinones may be used. This is illustrated in FIG. 20, for example. In FIG. 20, antibiotic effects of other anthraquinones were tested against MRSA. As shown, identical ratios of L-Arg and UCA were combined with various anthraquinones, including cassic acid (Rhein), aloe-emodin (AloeE), and chrysophanol (Chyrs.). Formulations were tested for MRSA growth using an iodonitrotetrazolium chloride assay. Each compound was MRSA was assayed in media control and subtracted from the values taken from the wells containing MRSA to control for colorimetric alterations. Each MRSA well contained 100,000 CFUs in 100 microliters.
As shown in FIG. 20 discussed above, in addition to cassic acid, other anthraquinones were tested for activity using an iodonitrotetrazolium chloride assay. Each anthraquinone was assayed for activity against one or more pathogen. In FIG. 20 activity was tested against MRSA growth.

MRSA [2] = experiment: In-vitro resistance study, repeated sub-inhibitory exposures of MRSA; assay type: cell-based, Staphylococcus aureus; conditions: sub-inhibitory concentrations
Experimental: A number of standard in-vitro resistance studies were conducted to predict the onset and mechanism of resistance for an anti-pathogenic compound such as WT13-13. The standard test comprises exposing bacteria to sub-inhibitory concentrations of an antibiotic over a number of exposures and monitoring the bacterial growth. As the bacteria develop resistance to the drug, the growth rate will rise. Tests were performed by treating MRSA with sub-inhibitory concentrations of both WT13-13 and mupirocin (separately) in order to study the behavior of WT13-13 and compare with that of mupirocin. The horizontal dotted lines represent the ideal, non-resistant behavior. That is, if an antibiotic were effective and the bacteria not developing resistance to it, its growth curve would be flat and follow the dotted line. However, all antibiotics to date experience bacterial resistance and trend upwards of the dotted line, towards the MRSA-only control line (if an antibiotic reaches the control line, it is completely ineffective and the bacteria is resistant to the antibiotic). […] The shading 1201 highlights this behavior. […] The shading 1203 highlights this behavior. […] Such “anti-resistance” has not been reported in an antibiotic before.

O=C1c2cccc(O)c2C(=O)c2c(O)cccc21 [dantron]
inhibition of MRSA growth (MRSA [1]): Inhibition of growth

C/C(=C\C(=O)OCCCCCCCCC(=O)O)C[C@@H]1OC[C@H](C[C@@H]2O[C@H]2[C@@H](C)[C@H](C)O)[C@@H](O)[C@H]1O [mupirocin]
development of resistance over multiple exposures (growth trend) (MRSA [2]): trends upwards towards the control line

O=C(O)C(=O)O [oxcalic acid]
inhibition of MRSA growth (MRSA [1]): Inhibition of growth
